Laboratory results reported in patent US20090106856A1, “Selection System for Wheat” (BASF PLANT SCIENCE GMBH, priority 2005, published 2009).

Key:
wheat callus = assay: Killing curve: callus growth and regeneration under constant selection pressure; type: cell-based, Triticum aestivum
Experimental: To define the sensitivity of wheat tissues during transformation when D-Serine and D-Alanine are present as selection agents regeneration experiments with immature embryos were designed. Immature embryos were immersed in PAWinf medium and subjected to all steps of callus induction, callus maintaining and regeneration in transformation protocol above.
Sensitivity of callus tissue under constant selection pressure were evaluated using range of concentrations: 0.5 mM, 1 mM, 3 mM, 5 mM, 10 mM, 25 mM, 50 mM. Experiments were performed in triplicates. Percentage of embryos forming embryos-genic callus was scored on PAW-4 regeneration medium. At the end of shoots elongation regeneration capacity of the calluses was scored as calluses regenerating shoots and number of shoots per callus.
Range of the tested concentrations 0.5-50 mM D-ser and D-ala are evaluated in replicating regeneration experiments. The effect of selective compounds is estimated during callus growth and shoots formation following transformation procedure on medium with D-serine and D-alanine (Table 4).

wheat in vitro shoots = assay: Killing curve: rooting of in vitro shoots; type: in vivo, Triticum aestivum
Text: […] The effect of selection agents was observed two and tree weeks later. Number of plantlets with growing roots and green leaves were scored.
In vitro regenerated shoots from media lacking the selection compounds were collected and transferred on medium for rooting (½ MS salts hormone free). Roots formation, growth of the shoots and leaves elongation was scored two and four weeks later after sub culturing of these shoots to the medium supplemented with D-amino acids (Table 5).

[1] = tested on: wheat variety Canon immature embryos / embryogenic callus; assay: Agrobacterium-mediated transformation with dao1 constructs and selection of transgenic plants; type: cell-based, Triticum aestivum; conditions: 5 mM selection
Experimental: Explants were washed with PAW-Inf. medium and immersed in the above-described bacterial suspension for 2 h at 26° C. At the end of infection the explants were placed with scutellum side up on PAW-1 medium. The residual bacterial suspension is removed by pipeting out and air-drying of the infected embryos by opening plates for 15 min on the sterile banch. Plates were sealed with Parafilm and placed in thermostat at 26° C. in the dark for 5-6 days co-cultivation.
After co-cultivation period the explants were washed with sterile water and 500 mg/L Cefotaxime and filter paper dried before being transferred to PAW-2 callus induction-recovery medium containing 160 mg/l Timentin for 14 days (7 days dark/7 days semi light; 13.2 μmol m^−2s^−1). Explants with embryogenic callus were subculture to PAW-2 callus-proliferation medium containing 160 mg/l Timentin and corresponding selection 5 mM D-serine or 5 mM D-alanine or 3 mg/l bialaphos. In some experiments the selection on D-amino acids was starting on PAW-2 callus induction medium 0, 7, 14 and 21 days after co cultivation. Embryogenic callus was subculture twice on fresh selective medium for callus maintaining and regeneration on PAW-4 medium with corresponding selection. Cultures were maintained at 23° C. on light 60.2 μmol m^−2s^−1. Regenerated shoots were subculture to PAW-5 hormone free medium with corresponding selection (5 mM D-serine or 5 mM D-alanine or 3 mg/l bialaphos) for further growth and rooting. All media used in the transformation experiments were filter sterilized and are listed in above. After analyses transgenic plants were transferred to soil and placed for further growth in greenhouse. 1.4 Molecular and expression studies of the transgenic plants
Freshly isolated immature embryos from Canon were inoculated with Agrobacterium. In all experiments Agrobacterium tumefactions super binary vector system based on LBA4404 (pSB1) was used. The constructs pRLM205 containing the original dao1 gene and pRLM226 carrying modified Daol. Both constructs contain gusINT reporter marker gene (FIGS. 3, I and II). Following co cultivation the explants were transferred on callus induction PAW-2 selection free medium containing 160 mg/l Timentin to inhibit bacterial growth for 14 days. For selection embryogenic callus was transferred to PAW-2 selection medium containing 5 mM D-serine or 5 mM D-alanine respectively. Furthermore calli were sub cultured to fresh corresponding selection PAW-2 medium for maintaining. Embryogenic calli were trans-ferred on PAW-4 selection medium for regeneration 5-6 weeks after transformation. The emerging plantlets were further grown and rooted on PAW-5 hormone free selection medium. Well-developed and rooted on selection putative transgenic regenerants were selected in vitro within. When D-alanine was used as selection compound similar effects in callus growth, shoots regeneration and rooting of transgenic plants or non transgenic escapes selected on D-serine was observed. Both selection agents resulted with 1.1% to 1.2% transformation efficiency and no escape rate (Table 9).

SMILES: N[C@H](CO)C(=O)O [D-serine]
- regeneration capacity of the calli measured as number of regenerants per callus line (wheat callus; 0.5 mM): clear increase
- number of calli regenerating plants reduced (wheat callus; 3 mM): 50%
- Regeneration capacity of the calli reduced (wheat callus; 5 mM): 70%
- Regenerated Embryogenic Lines (%) (wheat callus; Bobwhite, 0.5 mM): 83%
- Regenerated Embryogenic Lines (%) (wheat callus; Bobwhite, 3 mM): 57%
- Regenerated Embryogenic Lines (%) (wheat callus; Bobwhite, 5 mM): 32.5%
- Regenerated Embryogenic Lines (%) (wheat callus; Bobwhite, 10 mM): 10%
- Regenerated Embryogenic Lines (%) (wheat callus; Bobwhite, 15 mM): 6%
- Regenerated Embryogenic Lines (%) (wheat callus; Bobwhite, 25 mM): 0%
- Regenerated Embryogenic Lines (%) (wheat callus; Bobwhite, 50 mM): 0%
- Regenerated Embryogenic Lines (%) (wheat callus; Canon, 0.5 mM): 84%
- Regenerated Embryogenic Lines (%) (wheat callus; Canon, 3 mM): 56%
- Regenerated Embryogenic Lines (%) (wheat callus; Canon, 5 mM): 23%
- Regenerated Embryogenic Lines (%) (wheat callus; Canon, 10 mM): 6%
- Regenerated Embryogenic Lines (%) (wheat callus; Canon, 15 mM): 3%
- Regenerated Embryogenic Lines (%) (wheat callus; Canon, 25 mM): 0%
- Regenerated Embryogenic Lines (%) (wheat callus; Canon, 50 mM): 0%
- lethal dose (LD 100) for regeneration response of callus (wheat callus; tested in both varieties): 25 mM
- root formation of non-transgenic shoots (wheat in vitro shoots; 5 mM): not able to form roots
- Rooted Shoots (%) (wheat in vitro shoots; Bobwhite, 1 mM): 64%
- Rooted Shoots (%) (wheat in vitro shoots; Bobwhite, 3 mM): 24%
- Rooted Shoots (%) (wheat in vitro shoots; Bobwhite, 5 mM): 3%
- Rooted Shoots (%) (wheat in vitro shoots; Bobwhite, 10 mM): 0%
- Rooted Shoots (%) (wheat in vitro shoots; Bobwhite, 15 mM): 0%
- Rooted Shoots (%) (wheat in vitro shoots; Bobwhite, 25 mM): 0%
- Rooted Shoots (%) (wheat in vitro shoots; Canon, 1 mM): 56%
- Rooted Shoots (%) (wheat in vitro shoots; Canon, 3 mM): 16%
- Rooted Shoots (%) (wheat in vitro shoots; Canon, 5 mM): 2%
- Rooted Shoots (%) (wheat in vitro shoots; Canon, 10 mM): 0%
- Rooted Shoots (%) (wheat in vitro shoots; Canon, 15 mM): 0%
- Rooted Shoots (%) (wheat in vitro shoots; Canon, 25 mM): 0%
- ER (%) Escape Rate ([1]; pRLM205 (dao1 original)): 0%
- TE (%) Transformation Efficiency ([1]; pRLM205 (dao1 original)): 1.1%
- ER (%) Escape Rate ([1]; pRLM226 (dao1/ko modified)): 0%
- TE (%) Transformation Efficiency ([1]; pRLM226 (dao1/ko modified)): 0.72%
